Experimental data published in patent US20250281462A1, “THERAPEUTICALLY EFFECTIVE ORAL ADMINISTRATION OF A 2 ARYLBENZIMIDAZOLE” (Tranquis Therapeutics, Inc., priority 2021, published 2025).
Like-named read-outs stand apart in the source and are kept apart here.

Test: Plasma concentrations of TQS-168 and TQS-621 after single oral dose 50 mg/kg in mice, three formulations
Type: in vivo
Conditions: male, C57BL/6, mouse, plasma, po, 50 mg/kg; for Cmax / AUC(0-t) / Tmax / AUC(0-inf) / half-life: mice plasma; for Cmax: read-out: Cmax; for Tmax: read-out: tmax
Experimental: In a second experiment, mice were administered 50 mg/kg TQS-168 by oral gavage. For Group 1, TQS-168 was prepared at a concentration of 5.0 mg/mL in a suspension with […] in PBS. For Group 2, TQS-168 was prepared at a concentration of 5.0 mg/mL as a solution in 10 polyethylene glycol (PEG) 400|30 Kleptose (Roquete)|60% water.
Plasma exposures for Group 1 mice (ng/mL) are presented in Table 2 and for Group 2 mice in Table 3.
C57BL/6 male mice were administered a single dose of TQS-168 at 50 mg/kg using one of three formulations: Group 1-5.0 mg/ml suspension in 0.5% methylcellulose in PBS; Group 2-5.0 mg/ml solution in PEG400 (Fluka) 10%|Kleptose (Roquette) 30%|sterile water 60%; Group 3-5.0 mg/ml suspension in Labrafil M 1944 CS (Gattefosse) 30%|Masine CC (Gattefosse) 5%|Miglyol 812N 10%|sterile water 55%.
Plasma concentrations of TQS-168 and TQS-621 were measured overtime.

[1] = TQS-168 50 mg/kg p.o., Group 1 (suspension, 0.5% methylcellulose in PBS), individual mouse
[2] = TQS-168 50 mg/kg p.o., Group 1 (suspension, 0.5% methylcellulose in PBS), mean
[3] = TQS-168 50 mg/kg p.o., Group 2 (solution, PEG400/Kleptose/water), individual mouse
[4] = TQS-168 50 mg/kg p.o., Group 2 (solution, PEG400/Kleptose/water), mean
[5] = TQS-168 50 mg/kg p.o., Group 3 (suspension, Labrafil/Masine/Miglyol/water), individual mouse
[6] = TQS-168 50 mg/kg p.o., Group 3 (suspension, Labrafil/Masine/Miglyol/water), mean
[7] = mice, 50 mg/kg p.o., Group 1 (suspension, methylcellulose in PBS), individual mouse, read-out: Calculated Concentration in plasma
[8] = mice, 50 mg/kg p.o., Group 1 (suspension, methylcellulose in PBS), mean, read-out: Calculated Concentration in plasma
[9] = mice, 50 mg/kg p.o., Group 2 (solution, PEG 400/Kleptose/water), individual mouse, read-out: Calculated Concentration in plasma
[10] = mice, 50 mg/kg p.o., Group 2 (solution, PEG 400/Kleptose/water), mean, read-out: Calculated Concentration in plasma

Q: Which Cmax (50 mg/kg p.o., Group 1 (suspension)) does the source give for `CC(C)(C)c1ccc(-c2nc3ccccc3[nH]2)cc1` [TQS-168, 2-(4-tert-butylphenyl)-1H-benzimidazole] here?
A: The Cmax was 4.5 µM.

Q: And the Cmax (50 mg/kg p.o., Group 2 (solution))?
A: The Cmax was 8.54 µM.

Q: What about the Cmax (50 mg/kg p.o., Group 3 (suspension)) of the same molecule?
A: Its Cmax is 2.4 µM.

Q: What about the AUC(0-t) [1] of the same molecule?
A: The AUC(0-t) was 5040 ng·h/mL.

Q: And the Cmax [1]?
A: The Cmax was 1280 ng/mL.

Q: What about the Tmax [1] of the same molecule?
A: The Tmax was 1 h.

Q: And the AUC(0-inf) [2]?
A: Its AUC(0-inf) is 8110 ng·h/mL.

Q: And the AUC(0-t) [2]?
A: Its AUC(0-t) is 5970 ng·h/mL.

Q: What about the half-life [2] of the same molecule?
A: The half-life was 4.3 h.

Q: What about the Cmax [2] of the same molecule?
A: Its Cmax is 1120 ng/mL.

Q: And the Tmax [2]?
A: Its Tmax is 0.833 h.

Q: What about the AUC(0-inf) [3] of the same molecule?
A: Its AUC(0-inf) is 11400 ng·h/mL.

Q: What about the AUC(0-t) [3] of the same molecule?
A: Its AUC(0-t) is 10600 ng·h/mL.

Q: And the half-life [3]?
A: The half-life was 2.81 h.

Q: What about the Cmax [3] of the same molecule?
A: Its Cmax is 1950 ng/mL.

Q: What about the Tmax [3] of the same molecule?
A: Its Tmax is 0.5 h.

Q: And the AUC(0-inf) [4]?
A: Its AUC(0-inf) is 11400 ng·h/mL.

Q: What about the AUC(0-t) [4] of the same molecule?
A: The AUC(0-t) was 10700 ng·h/mL.

Q: What about the half-life [4] of the same molecule?
A: Its half-life is 2.82 h.

Q: What about the Cmax [4] of the same molecule?
A: The Cmax was 2140 ng/mL.

Q: And the Tmax [4]?
A: The Tmax was 0.833 h.

Q: What about the AUC(0-inf) [5] of the same molecule?
A: Its AUC(0-inf) is 4250 ng·h/mL.

Q: What about the AUC(0-t) [5] of the same molecule?
A: The AUC(0-t) was 4110 ng·h/mL.

Q: What about the half-life [5] of the same molecule?
A: The half-life was 1.47 h.

Q: What about the Cmax [5] of the same molecule?
A: The Cmax was 611 ng/mL.

Q: And the AUC(0-inf) [6]?
A: The AUC(0-inf) was 4150 ng·h/mL.

Q: What about the AUC(0-t) [6] of the same molecule?
A: The AUC(0-t) was 3930 ng·h/mL.

Q: And the half-life [6]?
A: The half-life was 1.71 h.

Q: And the Cmax [6]?
A: Its Cmax is 611 ng/mL.

Q: And the Tmax [6]?
A: The Tmax was 3.17 h.

Q: And the concentration at 0.25 h [7]?
A: Its concentration at 0.25 h is 586 ng/mL.

Q: And the concentration at 0.25 h [8]?
A: The concentration at 0.25 h was 653 ng/mL.

Q: And the concentration at 0.5 h [8]?
A: Its concentration at 0.5 h is 949 ng/mL.

Q: And the concentration at 1 h [7]?
A: Its concentration at 1 h is 1280 ng/mL.

Q: And the concentration at 1 h [8]?
A: Its concentration at 1 h is 1100 ng/mL.

Q: And the concentration at 2 h [8]?
A: Its concentration at 2 h is 776 ng/mL.

Q: And the concentration at 4 h [7]?
A: The concentration at 4 h was 435 ng/mL.

Q: What about the concentration at 4 h [8] of the same molecule?
A: The concentration at 4 h was 435 ng/mL.

Q: And the concentration at 8 h [8]?
A: The concentration at 8 h was 446 ng/mL.

Q: What about the concentration at 12 h (mice, 50 mg/kg p.o., Group 1 (suspension, methylcellulose in PBS), 12 hr, mean, read-out: Calculated Concentration in plasma) of the same molecule?
A: The concentration at 12 h was 187 ng/mL.

Q: And the concentration at 0.25 h [9]?
A: Its concentration at 0.25 h is 656 ng/mL.

Q: And the concentration at 0.25 h [10]?
A: Its concentration at 0.25 h is 900 ng/mL.

Q: And the concentration at 0.5 h [9]?
A: The concentration at 0.5 h was 1950 ng/mL.

Q: And the concentration at 0.5 h [10]?
A: The concentration at 0.5 h was 1960 ng/mL.

Q: And the concentration at 1 h [9]?
A: Its concentration at 1 h is 1520 ng/mL.

Q: And the concentration at 1 h [10]?
A: The concentration at 1 h was 1990 ng/mL.

Q: And the concentration at 2 h [9]?
A: The concentration at 2 h was 1810 ng/mL.

Q: And the concentration at 2 h [10]?
A: The concentration at 2 h was 1760 ng/mL.

Q: And the concentration at 4 h [9]?
A: The concentration at 4 h was 1330 ng/mL.

Q: What about the concentration at 4 h [10] of the same molecule?
A: Its concentration at 4 h is 1200 ng/mL.

Q: And the concentration at 8 h [9]?
A: Its concentration at 8 h is 374 ng/mL.

Q: And the concentration at 8 h [10]?
A: The concentration at 8 h was 427 ng/mL.
